Measurements published in patent US11071721B2, “Bicyclic amide compounds and methods of use thereof” (Genentech, Inc., priority 2016, dated 2021).

What follows are compounds tested against human RIP1 kinase domain (2-375) (Homo sapiens (Human), UniProt Q13546) (assay: RIP1 kinase inhibition assay (Transcreener ADP biochemical enzyme assay)). Settings: Ki app (Morrison tight-binding fit); 50 nM enzyme, 50 uM ATP, 2 hours incubation, fluorescence polarization.
Procedure: RIP1 Kinase Inhibition Assays (Biochemical Assay):
The compounds of the present invention were tested for their capacity to inhibit RIP K activity as described below.
Enzyme assay: The ability of the receptor interacting protein kinase (RIPK1) to catalyze the hydrolysis of adenosine-5′-triphosphate (ATP) is monitored using the Transcreener ADP (adenosine-5′-diphosphate) assay (BellBrook Labs). Purified human RIP1 kinase domain (2-375) (50 nM) derived from a baculovirus-infected insect cell expression system is incubated with test compounds for 2 hours in 50 mM Hepes buffer (pH 7.5) containing 30 mM MgCl2, 1 mM dithiothreitol, 50 uM ATP, 0.002% Brij-35, and 0.5% dimethyl sulfoxide (DMSO). Reactions are quenched by the addition of 1× Bell Brooks Stop buffer B (20 mM Hepes (ph7.5), 40 mM ethylenediaminetetraacetic acid and 0.02% Brij-35) containing an additional 12 mM EDTA and 55 ug/mL ADP2 antibody and 4 nM ADP-AlexaFluor® 633 tracer. The tracer bound to the antibody is displaced by the ADP generated during the RIP1K reaction, which causes a decrease in fluorescence polarization that is measured by laser excitation at 633 nm with a FP microplate reader M1000. Fractional activity was plotted against test article concentration. Using Genedata Screener software (Genedata; Basel, Switzerland), the data were fit to the tight-binding apparent inhibition constant (Ki^app) Morrison equation [Williams, J. W. and Morrison, J. F. (1979) The kinetics of reversible tight-binding inhibition. Methods Enzymol 63: 437-67]. The following equation was used to calculate fractional activity and Ki^app:
[formula] where [E]T and [I]T are the total concentrations of active enzyme and test article, respectively.

Sequence of human RIP1 kinase domain (2-375) (Q13546 2-375): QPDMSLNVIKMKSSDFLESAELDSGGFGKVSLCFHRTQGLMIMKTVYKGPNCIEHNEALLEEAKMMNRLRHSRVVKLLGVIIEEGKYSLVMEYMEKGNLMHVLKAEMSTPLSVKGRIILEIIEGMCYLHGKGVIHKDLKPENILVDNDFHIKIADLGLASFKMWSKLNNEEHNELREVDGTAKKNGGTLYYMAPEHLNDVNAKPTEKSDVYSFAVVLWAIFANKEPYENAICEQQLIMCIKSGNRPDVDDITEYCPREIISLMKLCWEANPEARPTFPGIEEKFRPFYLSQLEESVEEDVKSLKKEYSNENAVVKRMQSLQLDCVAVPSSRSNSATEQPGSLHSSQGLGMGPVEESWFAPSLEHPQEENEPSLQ

Ki [nM]	Structure (SMILES)
160	O=C(c1nc2n(n1)[C@H](c1ccccc1)C[C@@H]2F)N1CCCc2ccccc2C1 (racemic) [Example 94, [rac-(5S,7S)-7-fluoro-5-phenyl-6,7-dihydro-5H-pyrrolo[1,2-b][1,2,4]triazol-2-yl]-(1,3,4,5-tetrahydro-2-benzazepin-2-yl)methanone]
18	O=C(c1nc2n(n1)[C@H](c1ccccc1)C[C@@H]2F)N1CCc2cccc(F)c2C1 (racemic) [Example 95, (8-fluoro-3,4-dihydro-1H-isoquinolin-2-yl)-[rac-(5S,7S)-7-fluoro-5-phenyl-6,7-dihydro-5H-pyrrolo[1,2-b][1,2,4]triazol-2-yl]methanone]
58	CC1c2ccccc2CCN1C(=O)c1nc2n(n1)[C@H](c1ccccc1)C[C@@H]2F (mixture of isomers) [Example 97, (1-methyl-3,4-dihydro-1H-isoquinolin-2-yl)-[rac-(5S,7S)-7-fluoro-5-phenyl-6,7-dihydro-5H-pyrrolo[1,2-b][1,2,4]triazol-2-yl]methanone]
270	O=C(c1nc2n(n1)[C@@H](c1ccccc1)C[C@H]2F)N1CC2C(C1)C2(F)F (mixture of isomers) [Example 100, (6,6-difluoro-3-azabicyclo[3.1.0]hexan-3-yl)-[rac-(5R,7R)-7-fluoro-5-phenyl-6,7-dihydro-5H-pyrrolo[1,2-b][1,2,4]triazol-2-yl]methanone]
31	O=C(c1nc2n(n1)[C@@H](c1ccccc1)C[C@H]2F)N1CCC1 (racemic) [Example 104, azetidin-1-yl-[rac-(5R,7R)-7-fluoro-5-phenyl-6,7-dihydro-5H-pyrrolo [1,2-b][1,2,4]triazol-2-yl]methanone]
8	O=C(c1nc2n(n1)[C@@H](c1ccccc1)CC2(F)F)N1CC(F)(F)C1 (single isomer, unassigned) [Example 1a]
> 10000	O=C(c1nc2n(n1)[C@@H](c1ccccc1)CC2(F)F)N1CC(F)(F)C1 (single isomer, unassigned) [Example 1b]
9	O=C(c1nc2n(n1)[C@@H](c1ccccc1F)CC2)N1CC(F)(F)C1 (single isomer, unassigned) [Example 11]
5	O=C(c1nc2n(n1)[C@H](c1ccccc1)C[C@@H]2F)N1CC[C@H]1C(F)F (single isomer, unassigned) [Example 52]
5	C[C@H]1[C@@H](C(F)(F)F)CCN1C(=O)c1nc2n(n1)[C@H](c1ccccc1)C[C@@H]2F (single isomer, unassigned) [Example 86]
7100	O=C(c1nc2n(n1)[C@H](c1ccccc1)CC2)N1CC(F)(F)C1 (stereo in doubt) [Example 31, (3,3-difluoroazetidin-1-yl)-[rac-(5S)-5-phenyl-6,7-dihydro-5H-pyrrolo[1,2-b][1,2,4]triazol-2-yl]methanone]

Second part, the compound before the results:

Structure (SMILES)	Ki [nM]
O=C(c1nc2n(n1)[C@H](c1ccccc1)C[C@@H]2F)N1CC2CC1CC2(F)F (mixture of isomers) [Example 87, (5,5-difluoro-2-azabicyclo[2.2.1]heptan-2-yl)-[rac-(5S,7S)-7-fluoro-5-phenyl-6,7-dihydro-5H-pyrrolo[1,2-b][1,2,4]triazol-2-yl]methanone]	150
O=C(c1nc2n(n1)[C@H](c1ccccc1)C[C@@H]2F)N1CCc2ccncc2C1 (racemic) [Example 88, 3,4-dihydro-1H-2,7-naphthyridin-2-yl-[rac-(5S,7S)-7-fluoro-5-phenyl-6,7-dihydro-5H-pyrrolo[1,2-b][1,2,4]triazol-2-yl]methanone]	54
O=C(c1nc2n(n1)[C@H](c1ccccc1)C[C@@H]2F)N1CCc2ncccc2C1 (racemic) [Example 89, 7,8-dihydro-5H-1,6-naphthyridin-6-yl-[rac-(5S,7S)-7-fluoro-5-phenyl-6,7-dihydro-5H-pyrrolo[1,2-b][1,2,4]triazol-2-yl]methanone]	130
CN(C(=O)c1nc2n(n1)[C@H](c1ccccc1)C[C@@H]2F)c1ccccc1 (racemic) [Example 90, rac-(5S,7S)-7-fluoro-N-methyl-N,5-diphenyl-6,7-dihydro-5H-pyrrolo[1,2-b][1,2,4]triazole-2-carboxamide]	620
CN(CC(F)F)C(=O)c1nc2n(n1)[C@H](c1ccccc1)C[C@@H]2F (racemic) [Example 91, rac-(5S,7S)-N-(2,2-difluoroethyl)-7-fluoro-N-methyl-5-phenyl-6,7-dihydro-5H-pyrrolo[1,2-b] [1,2,4]triazole-2-carboxamide]	42
CN(CC(F)(F)F)C(=O)c1nc2n(n1)[C@H](c1ccccc1)C[C@@H]2F (racemic) [Example 92, rac-(5S,7S)-7-fluoro-N-methyl-5-phenyl-N-(2,2,2-trifluoroethyl)-6,7-dihydro-5H-pyrrolo [1,2-b][1,2,4]triazole-2-carboxamide]	100
O=C(c1nc2n(n1)[C@H](c1ccccc1)C[C@@H]2F)N1CCC(Cc2ccccc2)C1 (mixture of isomers) [Example 93, (3-benzylpyrrolidin-1-yl)-[rac-(5S,7S)-7-fIuoro-5-phenyl-6,7-dihydro-5H-pyrrolo[1,2-b][1,2,4]triazol-2-yl]methanone]	30
CC1c2c(F)cccc2CCN1C(=O)c1nc2n(n1)[C@H](c1ccccc1)C[C@@H]2F (mixture of isomers) [Example 96, (8-fluoro-1-methyl-3,4-dihydro-1H-isoquinolin-2-yl)-[rac-(5S,7S)-7-fluoro-5-phenyl-6,7-dihydro-5H-pyrrolo[1,2-b][1,2,4]triazol-2-yl]methanone]	57
O=C(c1nc2n(n1)[C@@H](c1ccccc1)C[C@H]2F)N1CC2CC2C1 (mixture of isomers) [Example 101, 3-azabicyclo[3.1.0]hexan-3-yl-[rac-(5R, 7R)-7-fluoro-5-phenyl-6,7-dihydro-5H-pyrrolo[1,2-b][1,2,4]triazol-2-yl] methanone]	82
O=C(c1cc2n(n1)C(c1ccccc1)CC2)N1CC(F)(F)C1 (racemic) [Example 102, (3,3-difluoroazetidin-1-yl)-(6-phenyl-5,6-dihydro-4H-pyrrolo[1,2-b]pyrazol-2-yl)methanone]	240
CN(C)C(=O)c1nc2n(n1)[C@@H](c1ccccc1)C[C@H]2F (racemic) [Example 105, rac-(5R,7R)-7-fluoro-N,N-dimethyl-5-phenyl-6,7-dihydro-5H-pyrrolo[1,2-b][1,2,4]triazole-2-carboxamide]	56
CC[C@@]1(C)OCc2cnc(C(=O)N3CC(F)(F)C3)cc21 (single isomer, unassigned) [Example 7]	1980
O=C(c1nc2n(n1)[C@H](c1ccccc1F)CC2)N1CC(F)(F)C1 (single isomer, unassigned) [Example 10]	> 10000
O=C(c1nc2n(n1)[C@@H](c1ccccc1F)CC2)N1CCC1 (single isomer, unassigned) [Example 12]	137
O=C(c1nc2n(n1)CC[C@H]2c1ccccc1)N1CC(F)(F)C1 (single isomer, unassigned) [Example 15]	66
CC1(F)CN(C(=O)c2nc3n(n2)[C@@H](c2ccccc2)CC3(F)F)C1 (single isomer, unassigned) [Example 38]	48
O=C(c1nc2n(n1)[C@@H](c1ccccc1)CC2(F)F)N1CC(F)C1 (single isomer, unassigned) [Example 48]	71
O=C(c1nc2n(n1)[C@@H](c1ccccc1)C[C@H]2F)N1CCC[C@@H]1C(F)F (single isomer, unassigned) [Example 65]	36
